Measured values reported in PubChem BioAssay AID1963431 (Molecular Pharmacology Branch, DTP, NCI, 2024).

System: Rh18 complex spheroid viability, percent test/control
Experiment: Anticancer human tumor Rh18 cell line growth inhibition [Asc];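 also: spheroids exposed to compound for 7 days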;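 as to viability, T/C: 100% = DMSO vehicle control wells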
Details: for IC50: curve of first compound; for viability, T/C: stronger effect = lower value
In short: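 Tumor cells were grown as complex spheroids with human endothelial cells (HUVEC) and human mesenchymal stem cells as stroma. Agents were tested alone and in combination, in half-log steps down from the clinical Cmax, or from 10 microM where Cmax was unknown.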

## NC1CCC(NC2CC2c2ccccc2)CC1 (configuration not stated) + CCN1C(C(=O)NC23CCC(C(=O)O)(CC2)CC3)C(c2cccc(Cl)c2F)C2(C(=O)Nc3cc(Cl)ccc32)C12CCCCC2
Second compound 0.03 µM
  IC50: < 0.000316 µM
Second compound 0.0949 µM
  IC50: < 0.000316 µM
Second compound 0.3 µM
  IC50: < 0.000316 µM
Second compound 0.949 µM
  IC50: < 0.000316 µM
Second compound 3 µM
  IC50: < 0.000316 µM
Second compound 0.03 µM, first compound 0.000316 µM
  viability, T/C: 31.7%
Second compound 0.03 µM, first compound 0.001 µM
  viability, T/C: 31.3%
Second compound 0.03 µM, first compound 0.00316 µM
  viability, T/C: 30.4%
Second compound 0.03 µM, first compound 0.01 µM
  viability, T/C: 29.5%
Second compound 0.03 µM, first compound 0.0316 µM
  viability, T/C: 33.9%
Second compound 0.03 µM, first compound 0.1 µM
  viability, T/C: 34.5%
Second compound 0.0949 µM, first compound 0.000316 µM
  viability, T/C: 19.3%
Second compound 0.0949 µM, first compound 0.001 µM
  viability, T/C: 23.4%
Second compound 0.0949 µM, first compound 0.00316 µM
  viability, T/C: 18.8%
Second compound 0.0949 µM, first compound 0.01 µM
  viability, T/C: 19%
Second compound 0.0949 µM, first compound 0.0316 µM
  viability, T/C: 19.6%
Second compound 0.0949 µM, first compound 0.1 µM
  viability, T/C: 20.9%
Second compound 0.3 µM, first compound 0.000316 µM
  viability, T/C: 11.1%
Second compound 0.3 µM, first compound 0.001 µM
  viability, T/C: 13.3%
Second compound 0.3 µM, first compound 0.00316 µM
  viability, T/C: 13%
Second compound 0.3 µM, first compound 0.01 µM
  viability, T/C: 13.3%
Second compound 0.3 µM, first compound 0.0316 µM
  viability, T/C: 12.9%
Second compound 0.3 µM, first compound 0.1 µM
  viability, T/C: 14.4%
Second compound 0.949 µM, first compound 0.000316 µM
  viability, T/C: 11.6%
Second compound 0.949 µM, first compound 0.001 µM
  viability, T/C: 10.8%
Second compound 0.949 µM, first compound 0.00316 µM
  viability, T/C: 9.55%
Second compound 0.949 µM, first compound 0.01 µM
  viability, T/C: 8.96%
Second compound 0.949 µM, first compound 0.0316 µM
  viability, T/C: 10.3%
Second compound 0.949 µM, first compound 0.1 µM
  viability, T/C: 11.3%
Second compound 3 µM, first compound 0.000316 µM
  viability, T/C: 11%
Second compound 3 µM, first compound 0.001 µM
  viability, T/C: 10.2%
Second compound 3 µM, first compound 0.00316 µM
  viability, T/C: 11.8%
Second compound 3 µM, first compound 0.01 µM
  viability, T/C: 10.1%
Second compound 3 µM, first compound 0.0316 µM
  viability, T/C: 8.61%
Second compound 3 µM, first compound 0.1 µM
  viability, T/C: 9.99%

## Cc1nc(N2CCC3(CC2)COC(C)C3N)c(CO)nc1Sc1ccnc(N)c1Cl (configuration not stated) + CNC(C)C(=O)NC1CN(S(=O)(=O)c2cccc(S(=O)(=O)N3CCC4CCC(C(=O)NC(c5ccccc5)c5ccccc5)N4C(=O)C(NC(=O)C(C)NC)C3)c2)CCC2CCC(C(=O)NC(c3ccccc3)c3ccccc3)N2C1=O
Second compound 0.00316 µM
  IC50: 0.0123 µM
Second compound 0.01 µM
  IC50: 0.0188 µM
Second compound 0.0316 µM
  IC50: 0.0124 µM
Second compound 0.1 µM
  IC50: 0.0156 µM
Second compound 0.316 µM
  IC50: < 0.00949 µM
Second compound 1 µM
  IC50: 0.0115 µM
Second compound 0.00316 µM, first compound 0.00949 µM
  viability, T/C: 44.4%
Second compound 0.00316 µM, first compound 0.03 µM
  viability, T/C: 60%
Second compound 0.00316 µM, first compound 0.0949 µM
  viability, T/C: 34.7%
Second compound 0.00316 µM, first compound 0.3 µM
  viability, T/C: 33.7%
Second compound 0.00316 µM, first compound 0.949 µM
  viability, T/C: 23.2%
Second compound 0.00316 µM, first compound 3 µM
  viability, T/C: 12.9%
Second compound 0.01 µM, first compound 0.00949 µM
  viability, T/C: 56%
Second compound 0.01 µM, first compound 0.03 µM
  viability, T/C: 48.8%
Second compound 0.01 µM, first compound 0.0949 µM
  viability, T/C: 30.7%
Second compound 0.01 µM, first compound 0.3 µM
  viability, T/C: 25.8%
Second compound 0.01 µM, first compound 0.949 µM
  viability, T/C: 23.2%
Second compound 0.01 µM, first compound 3 µM
  viability, T/C: 14.9%
Second compound 0.0316 µM, first compound 0.00949 µM
  viability, T/C: 51.2%
Second compound 0.0316 µM, first compound 0.03 µM
  viability, T/C: 45.7%
Second compound 0.0316 µM, first compound 0.0949 µM
  viability, T/C: 31.2%
Second compound 0.0316 µM, first compound 0.3 µM
  viability, T/C: 23.3%
Second compound 0.0316 µM, first compound 0.949 µM
  viability, T/C: 23.4%
Second compound 0.0316 µM, first compound 3 µM
  viability, T/C: 16.1%
Second compound 0.1 µM, first compound 0.00949 µM
  viability, T/C: 63%
Second compound 0.1 µM, first compound 0.03 µM
  viability, T/C: 32.3%
Second compound 0.1 µM, first compound 0.0949 µM
  viability, T/C: 22.9%
Second compound 0.1 µM, first compound 0.3 µM
  viability, T/C: 28.2%
Second compound 0.1 µM, first compound 0.949 µM
  viability, T/C: 21.9%
Second compound 0.1 µM, first compound 3 µM
  viability, T/C: 13.2%
Second compound 0.316 µM, first compound 0.00949 µM
  viability, T/C: 45.9%
Second compound 0.316 µM, first compound 0.03 µM
  viability, T/C: 24.1%
Second compound 0.316 µM, first compound 0.0949 µM
  viability, T/C: 31.3%
Second compound 0.316 µM, first compound 0.3 µM
  viability, T/C: 25.5%
Second compound 0.316 µM, first compound 0.949 µM
  viability, T/C: 18.9%
Second compound 0.316 µM, first compound 3 µM
  viability, T/C: 13.9%
Second compound 1 µM, first compound 0.00949 µM
  viability, T/C: 54%
Second compound 1 µM, first compound 0.03 µM
  viability, T/C: 30%
Second compound 1 µM, first compound 0.0949 µM
  viability, T/C: 22%
Second compound 1 µM, first compound 0.3 µM
  viability, T/C: 22.8%
Second compound 1 µM, first compound 0.949 µM
  viability, T/C: 37.9%
Second compound 1 µM, first compound 3 µM
  viability, T/C: 16.7%

## C#Cc1c(F)ccc2cc(O)cc(-c3ncc4c(N5CC6CCC(C5)N6)nc(OCC56CCCN5CC(F)C6)nc4c3F)c12 (configuration not stated) + Cc1c(S(C)(=O)=O)c(-c2cc(F)cc(N3CCN(c4ccc(NS(=O)(=O)c5ccc(NC(CCN6CCC(C(=O)OCCCP(=O)(O)O)CC6)CSc6ccccc6)c(S(=O)(=O)C(F)(F)F)c5)cc4)CC3)c2)c(-c2ccc(Cl)cc2)n1C(C)C
Second compound 0.1 µM
  IC50: < 0.0316 µM
Second compound 0.316 µM
  IC50: < 0.0316 µM
Second compound 1 µM
  IC50: < 0.0316 µM
Second compound 3.16 µM
  IC50: < 0.0316 µM
Second compound 10 µM
  IC50: < 0.0316 µM
Second compound 0.1 µM, first compound 0.0316 µM
  viability, T/C: 14.1%
Second compound 0.1 µM, first compound 0.1 µM
  viability, T/C: 10.3%
Second compound 0.1 µM, first compound 0.316 µM
  viability, T/C: 12.1%
Second compound 0.1 µM, first compound 1 µM
  viability, T/C: 13%
Second compound 0.1 µM, first compound 3.16 µM
  viability, T/C: 15.7%
Second compound 0.1 µM, first compound 10 µM
  viability, T/C: 15.8%
Second compound 0.316 µM, first compound 0.0316 µM
  viability, T/C: 11%
Second compound 0.316 µM, first compound 0.1 µM
  viability, T/C: 10.6%
Second compound 0.316 µM, first compound 0.316 µM
  viability, T/C: 10.8%
Second compound 0.316 µM, first compound 1 µM
  viability, T/C: 8.98%
Second compound 0.316 µM, first compound 3.16 µM
  viability, T/C: 10.4%
Second compound 0.316 µM, first compound 10 µM
  viability, T/C: 12.9%
Second compound 1 µM, first compound 0.0316 µM
  viability, T/C: 8.64%
Second compound 1 µM, first compound 0.1 µM
  viability, T/C: 7.73%
Second compound 1 µM, first compound 0.316 µM
  viability, T/C: 8.18%
Second compound 1 µM, first compound 1 µM
  viability, T/C: 9.23%
Second compound 1 µM, first compound 3.16 µM
  viability, T/C: 8.77%
Second compound 1 µM, first compound 10 µM
  viability, T/C: 8.2%
Second compound 3.16 µM, first compound 0.0316 µM
  viability, T/C: 6.12%
Second compound 3.16 µM, first compound 0.1 µM
  viability, T/C: 6.59%
Second compound 3.16 µM, first compound 0.316 µM
  viability, T/C: 5.52%
Second compound 3.16 µM, first compound 1 µM
  viability, T/C: 4.57%
Second compound 3.16 µM, first compound 3.16 µM
  viability, T/C: 5.64%
Second compound 3.16 µM, first compound 10 µM
  viability, T/C: 6.94%
Second compound 10 µM, first compound 0.0316 µM
  viability, T/C: 5.81%
Second compound 10 µM, first compound 0.1 µM
  viability, T/C: 5.32%
Second compound 10 µM, first compound 0.316 µM
  viability, T/C: 2.97%
Second compound 10 µM, first compound 1 µM
  viability, T/C: 3.66%
Second compound 10 µM, first compound 3.16 µM
  viability, T/C: 2.62%
Second compound 10 µM, first compound 10 µM
  viability, T/C: 4.15%
